Assay results as given in patent US20210053957A1, “HERBICIDAL COMPOUNDS” (SYNGENTA PARTICIPATIONS AG, priority 2018, published 2021).

Key:
Test in all cases: Post-emergence efficacy, glasshouse spray test
Format in all cases: in vivo
[1] = test system: Ipomoea hederacea (IPOHE); settings: Ipomoea hederacea, post-emergence, 312 h; Application Rate 500 g/Ha; evaluated after 13 days; read-out: Control of weed species after post-emergence application, IPOHE (100=total damage to plant; 0=no damage to plant)
Experimental: (§1) Seeds of a variety of test species were sown in standard soil in pots. After cultivation for 14 days (post-emergence) under controlled conditions in a glasshouse (at 24/16° C. day/night; 14 hours light; 65% humidity), the plants were sprayed with an aqueous spray solution derived from the dissolution of the technical active ingredient formula (I) in a small amount of acetone and a special solvent and emulsifier mixture referred to as IF50 (11.12% Emulsogen EL360 TM+44.44% N-methyl pyrrolidone+44.44% Dowanol DPM glycolether), to create a 50 g/l solution which was then diluted to required concentration using 0.25% or 1% Empicol ESC70 (Sodium lauryl ether sulphate)+1% ammonium sulphate as diluent. The test plants were then grown in a glasshouse under controlled conditions (at 24/16° C., day/night; 14 hours light; 65% humidity) and watered twice daily. After 13 days the test was evaluated (100=total damage to plant; 0=no damage to plant).
(§2) Ipomoea hederacea (IPOHE), Euphorbia heterophylla (EPHHL), Chenopodium album (CHEAL), Amaranthus palmeri (AMAPA), Lolium perenne (LOLPE), Digitaria sanguinalis (DIGSA), Eleusine indica (ELEIN), Echinochloa crus-galli (ECHCG), Setaia fabei (SETFA)

Setaia fabei (SETFA) = settings: Setaria faberi, post-emergence, 312 h; Application Rate 500 g/Ha; evaluated after 13 days; read-out: Control of weed species after post-emergence application, SETFA (100=total damage to plant; 0=no damage to plant)
Experimental: as §1, §2

Eleusine indica (ELEIN) = settings: Eleusine indica, post-emergence, 312 h; Application Rate 500 g/Ha; evaluated after 13 days; read-out: Control of weed species after post-emergence application, ELEIN (100=total damage to plant; 0=no damage to plant)
Experimental: as §1, §2

[2] = test system: Amaranthus palmeri (AMAPA); settings: Amaranthus palmeri, post-emergence, 312 h; Application Rate 500 g/Ha; evaluated after 13 days; read-out: Control of weed species after post-emergence application, AMAPA (100=total damage to plant; 0=no damage to plant)
Experimental: as §1, §2

[3] = test system: Digitaria sanguinalis (DIGSA); settings: Digitaria sanguinalis, post-emergence, 312 h; Application Rate 500 g/Ha; evaluated after 13 days; read-out: Control of weed species after post-emergence application, DIGSA (100=total damage to plant; 0=no damage to plant)
Experimental: as §1, §2

[4] = test system: Euphorbia heterophylla (EPHHL); settings: Euphorbia heterophylla, post-emergence, 312 h; Application Rate 500 g/Ha; evaluated after 13 days; read-out: Control of weed species after post-emergence application, EPHHL (100=total damage to plant; 0=no damage to plant)
Experimental: as §1, §2

[5] = test system: Chenopodium album (CHEAL); settings: Chenopodium album, post-emergence, 312 h; Application Rate 500 g/Ha; evaluated after 13 days; read-out: Control of weed species after post-emergence application, CHEAL (100=total damage to plant; 0=no damage to plant)
Experimental: as §1, §2

[6] = test system: Echinochloa crus-galli (ECHCG); settings: Echinochloa crus-galli, post-emergence, 312 h; Application Rate 500 g/Ha; evaluated after 13 days; read-out: Control of weed species after post-emergence application, ECHCG (100=total damage to plant; 0=no damage to plant)
Experimental: as §1, §2

Lolium perenne (LOLPE) = settings: Lolium perenne, post-emergence, 312 h; Application Rate 500 g/Ha; evaluated after 13 days; read-out: Control of weed species after post-emergence application, LOLPE (100=total damage to plant; 0=no damage to plant)
Experimental: as §1, §2

SMILES	pest or weed control at 500 g/ha [1] [%]	pest or weed control at 500 g/ha (Setaia fabei (SETFA)) [%]	pest or weed control at 500 g/ha (Eleusine indica (ELEIN)) [%]	pest or weed control at 500 g/ha [2] [%]	pest or weed control at 500 g/ha [3] [%]	pest or weed control at 500 g/ha [4] [%]	pest or weed control at 500 g/ha [5] [%]	pest or weed control at 500 g/ha [6] [%]	pest or weed control at 500 g/ha (Lolium perenne (LOLPE)) [%]
O=S(=O)([O-])CC[n+]1ccc(-c2cccs2)cn1 [Compound A36]	30	10	20	100	10	30	60	0	20
O=S(=O)([O-])CC[n+]1ccc(-c2nc(Cl)cs2)cn1 [Compound A25]	40	40	40	80	40	80	70	30	20
Cn1nnc(-c2cc[n+](CCS(=O)(=O)O)nc2)n1 [Compound A11]	60	100	100	100	90	100	90	100	80
CC(C[n+]1ccc(-c2ncco2)cn1)C(=O)O (stereo not shown) [Compound A88]	30	60	30	100	70	50	100	80	30
COC(=O)[C@@H](N)CC[n+]1ccc(-c2ncco2)cn1 [Compound A109]	0	90	–	90	–	60	90	–	10
Cn1nnc(-c2cc[n+](CCC(=O)O)nc2)n1 [Compound A28]	30	100	100	100	70	–	90	100	70
O=P(O)(O)CCC[n+]1ccc(-c2ncco2)cn1 [Compound A78]	50	50	0	70	60	–	80	20	10
OCCC[n+]1ccc(-c2ncco2)cn1 [Compound A70]	30	40	40	40	80	–	40	40	20
O=P(O)(O)CC[n+]1ccc(-c2ncco2)cn1 [Compound A77]	60	80	0	50	90	–	70	60	0
Cc1nsc(-c2cc[n+](CCC(=O)O)nc2)c1C [Compound A58]	20	90	40	80	90	–	50	70	30
